Data as given in PMC9006992 (Frontiers in Pharmacology, 2022).
Each block holds one compound with its values, some of them ahead of it.

Columns and labels:
[1] = Metabolite profiling in human plasma, urine and feces pools (HPLC-AMS); assay type: in vivo; conditions: for Feces % of dose: based on geometric mean of total cumulative excretion in feces; for Urine % of dose: based on geometric mean of total cumulative excretion in urine
Procedure: For each subject, plasma samples were pooled based on the Hamilton pooling scheme ([Hamilton et al., 1981]) with samples collected within 72 h. Thereafter, a single cross-subject plasma pool was prepared by using a constant proportion of each individual Hamilton pool. Proportional pooling was applied for urine and homogenized feces samples. […] A single cross-subject pool for both excreta was prepared by taking a sample representing 10% of each individual pool to obtain a representative pool of at least 95% of the total excreted ^14C across all subjects.
Pooled plasma and feces samples were further purified by liquid-liquid extraction prior to HPLC analysis. The pooled plasma sample (4,000 μl) was extracted with 1200 μl acetonitrile:methanol (80:20, v/v) (Thermo Fisher Scientific, Waltham, MA, United States). After mixing for 1 min, the sample was centrifuged for 10 min at 3,750 rpm and 10°C […]. Thereafter, the supernatant was collected, dried, and aliquoted for analysis. These extraction steps were repeated two additional times with the remaining pellet to obtain a high extraction recovery. The homogenized feces sample (200 mg) was extracted by addition of 800 μl acetonitrile, followed by centrifugation for 5 min at 3,750 rpm and 4°C. The supernatant was collected and dried with nitrogen at 40°C. The remaining pellet was extracted by addition of 800 μl acetonitrile:water (1:1, v/v) followed by a drying process with nitrogen. The dried extract was reconstituted with acetonitrile:mobile phase A (see Analytical Method for Metabolite Profiling) (1:9, v/v) and vortexed for 5 min. […] Urine samples were directly used for analysis.
Metabolite profiles were generated by using HPLC together with an AMS detector. The plasma extract (120 μl), the feces extract (10 μl), and urine (100 μl) were injected onto the HPLC (Agilent 1290, Agilent Technologies, Santa Clara, CA, United States) equipped with a binary pump G4220A (Agilent Technologies), an autosampler G4226A (Agilent Technologies), a column compartment G1316C (Agilent Technologies), and a fraction collector G1364C (Agilent Technologies). […] Mobile phases consisted of 20 mM ammonium formate adjusted to pH 9.5 with ammonium hydroxide (phase A) and a 7:2:1 (v/v/v) mixture of acetonitrile, methanol, and mobile phase A (phase B). […] Following HPLC analysis, pools of HPLC fractions were prepared by taking equivalent portions of consecutive individual fractions for analysis with AMS (SSAMS-250, National Electrostatics Corp., Middleton, WI, United States). The amounts of ^14C in each fraction and fraction pool were summed and compared to the solution injected onto the HPLC for the determination of profile recovery.

[2] = system: carboxylesterases (i.e., CES1b, CES1c, and CES2); experiment: Exploratory in vitro studies on enzymes catalyzing formation of M23; assay type: in vitro ADME; conditions: Idorsia data on file
[3] = Quantification of M38 in pooled human plasma using a synthesized reference; assay type: in vivo; conditions: non-radiolabelled metabolite
[4] = system: human liver microsomes (HLM); experiment: Incubation with HLMs and CYP-specific inhibitors; assay type: in vitro ADME; conditions: 10 μM 14C-ACT-1004-1239, 1 μM ketoconazole (CYP3A4 inhibitor)
CYP3A4 = experiment: Incubation with recombinant human CYP3A4; assay type: in vitro ADME; conditions: intersystem extrapolation scaling approach; 100 pmol/ml CYP, 10 μM, 60 min
Procedure: (§1) ^14C-ACT-1004-1239 was incubated for 60 min with 100 pmol/ml of the respective recombinant CYP (CYP1A1, CYP1A2, CYP2B6, CYP2C8, CYP2C9, CYP2C19, CYP2D6, or CYP3A4) in 100 mM phosphate buffer (pH 7.4) at a final ^14C-ACT-1004-1239 concentration of 10 μM. The incubation was initiated by addition of the pre-warmed NADPH-regenerating system and terminated by the addition of one volume equivalent acetonitrile. The NADPH-regenerating system was prepared as described in Incubation With HLMs and CYP-Specific Inhibitors. The organic solvent concentration in all incubations was kept at 0.5% (v/v). Control incubations in the absence of the NADPH-regenerating system or CYP, as well as incubations with control bactosomes, were performed in parallel under otherwise identical conditions. The samples were centrifuged for 10 min at 20,800 g and 10°C to obtain the supernatant which was used for HPLC analysis (as described in Analytical Method for Metabolite Profiling). The resulting data were further used to determine their contribution to the metabolic clearance in vitro by applying the intersystem extrapolation scaling approach as described by [Chen et al. (2011)]. […]

CYP2C19 = experiment: Incubation with recombinant human CYP2C19; assay type: in vitro ADME; conditions: intersystem extrapolation scaling approach; 100 pmol/ml CYP, 10 μM, 60 min
Procedure: as §1

CYP2C8 = experiment: Incubation with recombinant human CYP2C8; assay type: in vitro ADME; conditions: intersystem extrapolation scaling approach; 100 pmol/ml CYP, 10 μM, 60 min
Procedure: as §1

[5] = Pharmacokinetics of total 14C-radioactivity in human plasma (microtracer, AMS); assay type: in vivo; conditions: single oral 9.2 μg 14C-ACT-1004-1239 + 100 mg ACT-1004-1239
[6] = ref Huynh et al., cited from earlier work
[7] = design: method as in Richard-Bildstein et al., 2020; conditions: ref Richard-Bildstein et al., 2020; cited from earlier work

Plasma % in sample (relative abundance, % of total radioactivity) ([1]; cross-subject plasma pool, samples within 72 h): 21.1%
SMILES: O=C(O)c1cc(-c2ccc(F)cc2F)on1 [M23]
involvement of carboxylesterases in formation of M23 [2]: excluded the involvement of carboxylesterases

Urine + feces % of dose ([1]; 14C-radioactive dose excreted): 25.1% | Feces % of dose [1]: 23.7% | Urine % of dose [1]: 1.4%
SMILES: O=C(N[C@H]1CCNC[C@@H]1C(=O)NC1(c2ncccn2)CC1)c1cc(-c2ccc(F)cc2F)on1 [M1]

presence in pooled human plasma [3]: negligible
SMILES: N[C@H]1CCN(CC2CC2)C[C@@H]1C(=O)NC1(c2ncccn2)CC1 [M38]

SMILES: CC(=O)N1CCN(c2ccc(OCC3COC(Cn4ccnc4)(c4ccc(Cl)cc4Cl)O3)cc2)CC1 (stereo not shown) [ketoconazole]
formation of M1 in presence of inhibitor [4]: completely abolished

contribution of CYP3A4 to total M1 formation (total turnover in vitro) (CYP3A4): 94% | contribution of CYP2C19 to M1 formation (CYP2C19): 5.2% | contribution of CYP2C8 to M1 formation (CYP2C8): 1.2% | plasma concentration of 14C-drug-related material after 72 h post-dose [5]: below the limit of quantification | Feces % of dose [1]: 5.2% | Urine % of dose [1]: 10.1%
SMILES: O=C(N[C@H]1CCN(CC2CC2)C[C@@H]1C(=O)NC1(c2ncccn2)CC1)c1cc(-c2ccc(F)cc2F)on1 [ACT-1004-1239]
safety and tolerability profile ([6]; healthy humans, dose range 1–200 mg, single and multiple dose, 2021b, Huynh et al., 2021a): favorable safety and tolerability profiles | time to reach maximum plasma concentration [tmax] ([6]; male and female subjects, oral 1-200 mg, 2021a, Huynh et al., 2021b): 1 to 3 h | accumulation at steady state ([6]; multiple-dose, 2021a): almost no accumulation | time to steady-state conditions of systemic exposure ([6]; multiple-dose, 2021a): ≤ 3 days | absolute bioavailability ([6]; 2021b): 53% | effect of food on the PK ([6]; 2021b): no relevant effect | volume of distribution ([6]; 2021b): 183 L | absorption in rats [7]: rapidly absorbed | volume of distribution in rats [7]: in excess of total body water
